# According to patent publication US20200247815A1, “PYRAZOLYL-CONTAINING TRICYCLIC DERIVATIVE, PREPARATION METHOD THEREFOR AND USE THEREOF” (Jiangsu Hansoh Pharmaceutical Group Co., Ltd., priority 2017, published 2020):
# What was measured:
# [1] = tested on: pancreatic cancer tumor cell Mia Paca 2; test: Inhibition of tumor cell proliferation (CellTiter-Glo); type: cell-based; details: Homo sapiens, Miapaca-2 cell, 3-7 days
# Procedure: The object of this test example is to determine the inhibition effect of the present compound on tumor cell proliferation activity. The inhibition activity of the compound on tumor cell proliferation was determined by CellTiter-Glo method, and the half inhibitory concentration IC50 of the compound for inhibiting cell proliferation activity was obtained, 50-100 μL of tumor cell suspension was inoculated in a 96-well cell culture plate with a density of 1˜5*10^4 cells/ml. The plate was incubated in an incubator for 16˜24 hours (37° C., 5% CO2). Solutions of test compounds at different concentrations obtained by gradient dilution were added to the cells in the plate. The plate was incubated in an incubator for 3-7 days (37° C., 5% CO2), 50˜100 μL of CellTiter-Glo reagent was added to each well. The plate was shaked for 10 minutes, and left to stand at room temperature for 10 minutes. The value of the chemiluminescence signal was determined by a microplate reader. The inhibition rate was calculated from the value of the chemiluminescence signal. IC50 of the compound was obtained by curve fitting based on the inhibition rate at different concentrations.
# The inhibition effect of the present compound on pancreatic cancer tumor cell Mia Paca 2 proliferation activity was determined by the test, and the obtained IC50 value is shown in Table 2.
# [2] = Solubility (statement, no method); type: physicochemical
# ERK-2 kinase = target: T1, ERK-2 kinase (Homo sapiens, UniProt P28482); test: Inhibition of ERK-2 kinase activity (LANCE Ultra TR-FRET); type: biochemical; details: ERK-2 enzyme 0.08 nM, ATP 38.15 μM
# T1 construct: purchased Invitrogen PV3313
# T1 sequence (P28482 whole entry): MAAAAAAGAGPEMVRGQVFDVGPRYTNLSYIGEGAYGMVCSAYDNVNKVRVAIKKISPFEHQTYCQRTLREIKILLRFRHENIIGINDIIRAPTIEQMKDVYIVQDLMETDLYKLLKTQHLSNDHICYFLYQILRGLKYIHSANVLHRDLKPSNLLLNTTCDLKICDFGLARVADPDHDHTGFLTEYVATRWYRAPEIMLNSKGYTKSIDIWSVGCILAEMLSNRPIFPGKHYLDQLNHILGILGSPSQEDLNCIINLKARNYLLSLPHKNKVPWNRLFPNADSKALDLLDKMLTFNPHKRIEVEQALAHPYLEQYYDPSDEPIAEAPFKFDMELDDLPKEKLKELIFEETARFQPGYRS
# In short: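 Recombinant ERK-2 (0.08 nM) with ULight-MBP peptide (0.5 μM) and ATP (38.15 μM) in Hepes pH 7.4 buffer, compound 100 nM to 0.005 nM final, 4% DMSO, 60 min at room temperature. Eu-anti-p-MBP TR-FRET (665/615 nm) read after EDTA stop; % inhibition versus DMSO and no-enzyme controls fitted 4-parameter for Abs_IC50.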
# [3] = tested on: human pancreatic cancer cell MiaPaca 2 xenograft (CDX) model; test: Tumor inhibition experiment in MiaPaca 2 xenograft model; type: in vivo, BALB/c nude mice
# Procedure: BALB/c nude mice were used as test animals. In vivo pharmacodynamic test was carried out in human pancreatic cancer cell MiaPaca 2 xenograft (CDX) model to evaluate the antitumor effect of the test compound.
# MiaPaca 2 cells were obtained from the cell bank. After recovery, the cells were added to a DMEM medium (containing 10% FBS, 1% Glu and 1% P/S), and incubated in the CO2 incubator (the incubator temperature was 37° C., and the CO2 concentration was 5%). The cells were subjected to passage after spreading 80-90% of the bottom of the culture flask. After passage, the cells were incubated in the CO2 incubator. This process was repeated until the number of cells met the required by in vivo pharmacological inoculation. Cells in log phase were collected, and counted by the automatic cell counter. The cells were re-suspended with PBS and Matrigel (1:1 by volume) based on the counting results to obtain a cell suspension (cell density: […]), which was placed in an ice box.
# Female BALB/c nude mice (6-8 weeks old, body weight: 18-22 grams) were used as test animals. The mice were maintained in individually ventilated cages (5 mice per cage) in a special pathogen-free environment. All cages, padding and water were disinfected before use. All animals had free access to standard certified commercial laboratory diets. The nude mice were labeled with disposable ear tags before the experiment. The skin of the inoculated area was sterilized with 75% medical alcohol before inoculation. Each mouse was subcutaneously inoculated with 0.1 ml (containing 8*10^6 cells) of MiaPaca 2 tumor cells on the right back. Administration was started when the average tumor volume reached 100-200 mm^3. The test compound was administrated intragastrically daily. The tumor volume (mm^3) was measured with vernier caliper twice a week. Calculation formula: V=0.5*D*d*d, wherein D and d refer to the major and minor diameter of the tumor, respectively. The anti-tumor efficacy was determined by dividing the average tumor increase volume of compound-treated animals by the average tumor increase volume of untreated animals. Calculation formula of tumor inhibition rate: TGI (%)=1−[(Vt−V0)administration group/(Vt−V0)solvent control group]*100%. All animals were euthanized after the experiment.
# [4] = 50 mg/kg QD × 16 d, intragastric, Day 16
# [5] = 50 mg/kg BID × 3 w, intragastric
# [6] = 100 mg/kg QD × 3 w, intragastric
IC50 [1],Solubility compared with ERK compounds of the prior art [2],IC50 (ERK-2 kinase),Compound,"Tumor volume (Mean ± SD) Day 0 ([3]; 50 mg/kg QD × 16 d, intragastric)","TGI Day 16 [3, 4]","Tumor volume (Mean ± SD) Day 16 [3, 4]","ΔT/ΔC Day 16 [3, 4]","Inhibition of growth of xenograft ([3]; 50 mg/kg QD, continuous oral administration for 16 days)","Tumor volume (Mean ± SD) Day 0 [3, 5]","TGI Day 21 [3, 5]","Tumor volume (Mean ± SD) Day 21 [3, 5]","ΔT/ΔC Day 21 [3, 5]","Inhibition of growth of xenograft ([3]; 50 mg/kg BID, continuous oral administration for 21 days)","Tumor volume (Mean ± SD) Day 0 [3, 6]","TGI Day 21 [3, 6]","Tumor volume (Mean ± SD) Day 21 [3, 6]","ΔT/ΔC Day 21 [3, 6]","Inhibition of growth of xenograft ([3]; 100 mg/kg QD, continuous oral administration for 21 days)"
123 nM,higher solubility,0.17 nM,"C[C@@H](NC(=O)c1cc2cc3c(-c4ccncc4)n[nH]c3cc2[nH]1)c1ccccc1 [Example 1, (R)—N-(1-phenylethyl)-3-(pyridin-4-yl)-1,7-dihydropyrrolo[3,2-f]indazole-6-carboxamide]",154 ± 29 mm^3,86.63%,214 ± 97 mm^3,13.37%,significantly inhibit the growth,–,–,–,–,–,–,–,–,–,–
69.1 nM,higher solubility,0.19 nM,"C[C@@H](NC(=O)c1nc2cc3c(-c4ccncc4)n[nH]c3cc2[nH]1)c1ccccc1 [Example 2, (R)—N-(1-phenylethyl)-3-(pyridin-4-yl)-1,7-dihydroimidazo[4,5-f]indazole-6-carboxamide]",–,–,–,–,–,156 ± 27 mm^3,85.07%,253 ± 32 mm^3,14.93%,significantly inhibit the growth,156 ± 24 mm^3,91.14%,214 ± 104 mm^3,8.86%,significantly inhibit the growth
